Test results published in patent US20240150423A1, “GLP-1 ANALOGUE-MODIFIED DIMERS WITH DIFFERENT CONFIGURATIONS, PREPARATION METHOD THEREOF, AND APPLICATION THEREOF IN TREATMENT OF TYPE II DIABETES” (Nanjing Finepeptide Biopharmaceutical Co.,Ltd, priority 2019, published 2024).
Several values for one entry are separate records, joined by “and”; a condition that tells them apart may be missing. Equal entries are not always repeated. Where two headings read alike, the source gives them in different places.

Tests used:
Normal Kunming (KM) mice [1] = assay: single oral glucose tolerance test (sOGTT); format: in vivo; conditions: for glucose peak in single OGTT: after a single administration and oral glucose, tail blood at 0-120 min
From the text: • 1. Methods: Normal Kunming (KM) mice (purchased from Guangdong Animal Center) were used for oral glucose tolerance test (OGTT) to obtain the hypoglycemic activity and durability of drug. […] The blood glucose meter and blood glucose test paper were from Bayer […]. The average blood glucose of each group was used as an evaluation standard: When the average blood glucose of experimental group was higher than that of the NaCl control group for two times, the measurement stopped and the hypoglycemic period compared to the blank control group was the effective duration. • 2. Results • 2.1 single OGTTs: after a single administration, the mice were orally administered glucose once and measured the blood glucose from the tail blood at 0, 10, 20, 40, 60 and 120 min. […] The duration of each monomer group was about 1⁄2-1⁄4 of the duration of its corresponding dimer group. […] Therefore, the 2G3 peptide was selected for treating type II diabetes (T2D) in vivo and subsequent experiments.

Normal Kunming (KM) mice [2] = assay: multiple OGTT (mOGTT): hypoglycemic duration after a single administration; format: in vivo; conditions: single injection at the same dose (1.126 nmol), subcutaneous
Method in brief: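 Single administration in normal Kunming mice, followed by oral glucose loading with tail-vein glucose sampled at 0–120 min (0, 10, 20, 40, 60, 120 min). Effective duration ended once mean glucose exceeded the NaCl control group on two occasions.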

GLP-1R = GLP-1R Western blot analysis in T2D model; format: in vivo, C57B16/J mice; conditions: compared with the model control group
[3] = T2D model treatment: body weight and organ weights; format: in vivo, C57B16/J mice; conditions: 2G1 study, 35 days
Description: C57B16/J mice were placed in an SPF-level environment with a standard diet. All experimental operations were performed in accordance with the guidelines of the ethics and uses of experimental animals. […] The NaCl-PB group served as blank control and the model control group served as the T2D model control. They were injected with NaCl-PB solution. The T2D model group was fed with 60 kcal % high-fat diet (D12492, Changzhou SYSE Bio-tech. Co., Ltd., China) until the end of the experiment. Meanwhile the blank control group maintained standard diet. […] These groups were subjected to a 35-day treatment study on the basis of the high-fat diet. • 1. […] The monomeric peptides were dissolved into a saline solution (pH 6.5) for injection. • 2. […] The models were measured blood glucose at the tail and weight weighted every morning at 9 am. […] In the T2D treatment study, all T2D model mice were injected subcutaneously at the back hip in 100 μl per mouse within 30 min. The blood glucose of the experimental mice was measured every five days and the whole measurement was completed within 40 min. […] No. 8-9695-03-201-1, Novo Nordisk company, Switzerland) until the end of the 35-day experiment. • 3.

[4] = trial for 26 weeks; cited from earlier work
[5] = clinic trial for 24 weeks, once a day; cited from earlier work
[6] = in vivo; cited from earlier work
[7] = speculated; cited from earlier work
thyroid C-cell = conditions: rodents, dose-dependent and time-dependent; cited from earlier work
[8] = cited from earlier work
[9] = high dose 3.378 nmol/100 μL once a day
[10] = low dose 0.375 nmol/100 μL once a day
[11] = medium dose and Liraglutide group 1.126 nmol/100 μL once a day

## 2G2 series 7: disulfide-linked homodimer of monomer SEQ ID NO: 7 (HAEGTFTSDVCSYLEGQAAXEFIAWLVRGRG; disulfide-linked homodimer; Sequence is synthesized; (20)..(20) Xaa is Xaa is 26Lys[N-e-(N-a-Palmitoyl-g-glutamyl)]; (31)..(31) C-terminal)
Normal Kunming (KM) mice [1]; with more time, no significant difference
  hypoglycemic effect in single OGTT: stronger than that of monomeric G2 or G3
Normal Kunming (KM) mice [2]
  Hypoglycemic duration (days): 5 (2G2 peptide) days
GLP-1R
  GLP-1R expression (Western blot): significantly increased GLP-1R

## CCCCCCCCCCCCCCCC(=O)N[C@@H](CCC(=O)NCCCC[C@H](NC(=O)[C@H](C)NC(=O)[C@H](C)NC(=O)[C@H](CCC(N)=O)NC(=O)CNC(=O)[C@H](CCC(=O)O)NC(=O)[C@H](CC(C)C)NC(=O)[C@H](Cc1ccc(O)cc1)NC(=O)[C@H](CO)NC(=O)[C@H](CO)NC(=O)[C@@H](NC(=O)[C@H](CC(=O)O)NC(=O)[C@H](CO)NC(=O)[C@@H](NC(=O)[C@H](Cc1ccccc1)NC(=O)[C@@H](NC(=O)CNC(=O)[C@H](CCC(=O)O)NC(=O)[C@H](C)NC(=O)[C@@H](N)Cc1c[nH]cn1)[C@@H](C)O)[C@@H](C)O)C(C)C)C(=O)N[C@@H](CCC(=O)O)C(=O)N[C@@H](Cc1ccccc1)C(=O)N[C@H](C(=O)N[C@@H](C)C(=O)N[C@@H](Cc1c[nH]c2ccccc12)C(=O)N[C@@H](CC(C)C)C(=O)N[C@H](C(=O)N[C@@H](CCCNC(=N)N)C(=O)NCC(=O)N[C@@H](CCCNC(=N)N)C(=O)NCC(=O)N[C@@H](CSSC[C@H](NC(=O)CNC(=O)[C@H](CCCNC(=N)N)NC(=O)CNC(=O)[C@H](CCCNC(=N)N)NC(=O)[C@@H](NC(=O)[C@H](CC(C)C)NC(=O)[C@H](Cc1c[nH]c2ccccc12)NC(=O)[C@H](C)NC(=O)[C@@H](NC(=O)[C@H](Cc1ccccc1)NC(=O)[C@H](CCC(=O)O)NC(=O)[C@H](CCCCNC(=O)CC[C@H](NC(=O)CCCCCCCCCCCCCCC)C(=O)O)NC(=O)[C@H](C)NC(=O)[C@H](C)NC(=O)[C@H](CCC(N)=O)NC(=O)CNC(=O)[C@H](CCC(=O)O)NC(=O)[C@H](CC(C)C)NC(=O)[C@H](Cc1ccc(O)cc1)NC(=O)[C@H](CO)NC(=O)[C@H](CO)NC(=O)[C@@H](NC(=O)[C@H](CC(=O)O)NC(=O)[C@H](CO)NC(=O)[C@@H](NC(=O)[C@H](Cc1ccccc1)NC(=O)[C@@H](NC(=O)CNC(=O)[C@H](CCC(=O)O)NC(=O)[C@H](C)NC(=O)[C@@H](N)Cc1c[nH]cn1)[C@@H](C)O)[C@@H](C)O)C(C)C)[C@@H](C)CC)C(C)C)C(=O)O)C(=O)O)C(C)C)[C@@H](C)CC)C(=O)O [2G1]
[3]; [9]
  Weight of organs, Heart: 0.121 ± 0.011a** g
  Weight of organs, Left kidney: 0.166 ± 0.040 g
  Weight of organs, Left testis: 0.086 ± 0.017 e* g
  Weight of organs, Liver: 1.293 ± 0.273 c* g
  Weight of organs, Lung: 0.144 ± 0.019 g
  Weight of organs, Pancreas: 0.145 ± 0.032 c* g
  Weight of organs, Right kidney: 0.175 ± 0.063 g
  Weight of organs, Right testis: 0.096 ± 0.011 g
  Weight of organs, Spleen: 0.095 ± 0.028 c* g
  Weight of organs, adipose tissue: 1.311 ± 0.629 c* g
[3]; [10]
  Weight of organs, Heart: 0.128 ± 0.023 g
  Weight of organs, Left kidney: 0.156 ± 0.021 g
  Weight of organs, Left testis: 0.094 ± 0.037 g
  Weight of organs, Liver: 1.290 ± 0.163 a*c** g
  Weight of organs, Lung: 0.146 ± 0.010 g
  Weight of organs, Pancreas: 0.129 ± 0.2a**c*** g
  Weight of organs, Right kidney: 0.147 ± 0.018 g
  Weight of organs, Right testis: 0.100 ± 0.021 b* g
  Weight of organs, Spleen: 0.107 ± 0.037 c* g
  Weight of organs, adipose tissue: 1.202 ± 0.406 c** g
[3]; [11]
  Weight of organs, Heart: 0.114 ± 0.010 a** g
  Weight of organs, Left kidney: 0.157 ± 0.030 g
  Weight of organs, Left testis: 0.100 ± 0.006 b** g
  Weight of organs, Liver: 1.211 ± 0.114 c** g
  Weight of organs, Lung: 0.139 ± 0.020 g
  Weight of organs, Pancreas: 0.155 ± 0.033 c*d* g
  Weight of organs, Right kidney: 0.139 ± 0.029 g
  Weight of organs, Right testis: 0.095 ± 0.011 g
  Weight of organs, Spleen: 0.101 ± 0.026 c* g
  Weight of organs, adipose tissue: 1.263 ± 0.276 c*** g

## Albiglutide
[4]
  body weight reduction: 0.6 kg

## Dulaglutide
[4]
  body weight reduction: 2.9 kg

## His-Ala-Glu-Gly-Thr-Phe-Thr-Ser-Asp-Val-Cys-Ser-Tyr-Leu-Glu-Gly-Gln-Ala-Ala-Lys[N-ϵ-(N-α-Palmitoyl-L-γ-glutamyl)]-Glu-Phe-Ile-Ala-Trp-Leu-Val-Arg-Gly-Arg-Gly-OH (HAEGTFTSDVCSYLEGQAAXEFIAWLVRGRG; palmitoyl-γ-glutamyl on Lys; C-terminal acid; Sequence is synthesized; (20)..(20) Xaa is Xaa is 26Lys[N-e-(N-a-Palmitoyl-g-glutamyl)]; (31)..(31) C-terminal) [G2 series 7]
Normal Kunming (KM) mice [1]
  glucose peak in single OGTT: no blood glucose peak appeared

## His-Ala-Glu-Gly-Thr-Phe-Thr-Ser-Asp-Val-Ser-Cys-Tyr-Leu-Glu-Gly-Gln-Ala-Ala-Lys[N-ϵ-(N-α-Palmitoyl-L-γ-glutamyl)]-Glu-Phe-Ile-Ala-Trp-Leu-Val-Arg-Gly-Arg-Gly-OH (HAEGTFTSDVSCYLEGQAAXEFIAWLVRGRG; palmitoyl-γ-glutamyl on Lys; C-terminal acid; Sequence is synthesized; (20)..(20) Xaa is 26Lys[N-e-(N-a-palmitoyl-L-g-glutamyl)]; (31)..(31) C-terminal) [G3 series 20]
Normal Kunming (KM) mice [1]
  glucose peak in single OGTT: no blood glucose peak appeared
Normal Kunming (KM) mice [2]; monomeric peptides
  Hypoglycemic (day): 4 (G3 peptide) day

## Lixisenatide
[5]
  incidence of side reaction: 2.5%
  symptomatic hypoglycemia rate: 3.4%

## Semaglutide
[6]
  hypoglycemic activity reduction compared with Liraglutide: 3 times
[7]
  half-life: 165 to 184 h
Thyroid C-cell
  thyroid C-cell tumor: can cause thyroid C-cell tumor
[8]; % of patients
  injection-site discomfort and erythema: 0.2%
[8]; Semaglutide 0.5 mg group
  gastrointestinal adverse reactions: 32.7%
[8]; Semaglutide 1 mg group
  gastrointestinal adverse reactions: 36.4%
[8]; human, in vivo
  mean increase in amylase: 13%
  mean increase in lipase: 22%
[8]; in combination with sulfonylurea, % of patients
  severe hypoglycemia: 0.8-1.2%
[8]; two values printed 'respectively', groups not named
  Cholelithiasis: 1.5% and 0.4%
